Converted amounts (≈) assume the structure as drawn. Where two headings read alike, the source gives them in different places. Peptide text beside a SMILES is read from it.

Holding throughout (assay): microbe, parasite or virus in culture
Test [1] relates to S. aureus ATCC 29213. The format is cell-based, Staphylococcus aureus. The conditions noted are these: 24 h, 37 °C. Here is the method:
(§1) The antibacterial activity of the conjugates was assessed by determining their minimum inhibitory concentration (MIC) and minimum bactericidal concentration (MBC) against Gram-negative E. coli (K12 MG 1655 and WR 3551/98) and Gram-positive S. aureus (ATCC 29213 and ATCC BAA1720 MRSA) strains (Table 1, Figures S16–S23).
(§2) The MBC values were determined by diluting wells from the MIC experiment plate in fresh MHB medium. Dilutions of 10-, 100-, and 1000-times were prepared for the MIC well and up to two-folds higher than MIC concentrations of a given compound. Dilutions were made on a transparent flat-bottom 96-well plate (Nest), which was then sealed and incubated for 24 h, at 37 °C with shaking. The growth of a given sample well was compared with GC and SC controls.

Test [2] has as its system S. aureus ATCC BAA1720 MRSA. In kind it is cell-based, Staphylococcus aureus. The conditions noted are these: MIC wells diluted in fresh MHB, 24 h, 37 °C. Here is the method:
as §1, §2

For test [3], the system named is S. aureus ATCC 29213. In kind it is cell-based, Staphylococcus aureus. The conditions noted are these: 20 h, 37 °C with shaking, OD600. On the procedure:
as §1
(§3) The MIC values were determined as follows. Bacteria were first cultured overnight in 2 mL of lysogeny broth (LB, VWR Chemicals) at 37 °C with shaking. Next, 20 μL of overnight culture was transferred into 2 mL of […] (MHB, Difco) medium and further cultured at 37 °C with shaking until the culture reached OD600 = 0.3. Subsequently, the culture was diluted 1:100 in a fresh MHB medium, and aliquots of 50 μL were mixed with 50 μL of previously prepared dilutions of the tested compound in MHB on a transparent flat-bottom 96-well plate (Nest). The plate was then sealed with transparent foil (Titer-Tops) and incubated for 20 h, at 37 °C with shaking. Following incubation, optical density at 600 nm was measured using a Tecan Sunrise plate reader. Growth inhibition was determined by comparing the given sample with untreated culture (growth control—GC) with MHB alone (sterility control—SC) as an additional reference. The experiment was conducted in at least two biological replicates of two technical replicates each. Statistical significance was determined by the two-way ANOVA test using GraphPad Prism 9 software.

Test [4] has as its system S. aureus ATCC BAA1720 MRSA. In kind it is cell-based, Staphylococcus aureus. The settings on record: S. aureus ATCC BAA1720 MRSA (NEO-resistant), MHB, 20 h, 37 °C with shaking, OD600. Here is the method: as §1, §3
For test [5], the system named is E. coli K12 MG1655. In kind it is cell-based, Escherichia coli. The settings on record: MHB, 20 h, 37 °C with shaking, OD600, at least two biological replicates of two technical replicates. Here is the method: as §1, §3
The subject of test [6] is E. coli WR 3551/98. In kind it is cell-based, Escherichia coli. The settings on record: for MIC: E. coli WR 3551/98 (AMK-resistant), MHB, 20 h, 37 °C with shaking, OD600. On the procedure: as §1, §3
The test system of test [7] is E. coli K12 MG1655. In kind it is cell-based, Escherichia coli. The settings on record: MIC wells diluted 10-, 100-, 1000-times in fresh MHB, 24 h, 37 °C, bactericidal if no growth at 100- and 1000-times dilutions. On the procedure:
as §1, §2

The test system of test [8] is E. coli WR 3551/98. The format is cell-based, Escherichia coli. The conditions noted are these: 24 h, 37 °C, read-out: MBC. Here is the method:
as §1, §2

In the case of `CC[C@H](C)[C@H](NC(=O)[C@H](CCCNC(=N)N)NC(=O)[C@H](CCCCN)NC(=O)[C@H](CC(C)C)NC(=O)[C@H](CC(C)C)NC(=O)CNC(=O)[C@@H](N)CSSC[C@H](N)C(=O)NCC(=O)N[C@@H](CC(C)C)C(=O)N[C@@H](CC(C)C)C(=O)N[C@@H](CCCCN)C(=O)N[C@@H](CCCNC(=N)N)C(=O)N[C@H](C(=O)N[C@@H](CCCCN)C(=O)N[C@H](C(=O)N[C@@H](CC(C)C)C(=O)N[C@@H](CC(C)C)C(N)=O)[C@@H](C)O)[C@@H](C)CC)C(=O)N[C@@H](CCCCN)C(=O)N[C@H](C(=O)N[C@@H](CC(C)C)C(=O)N[C@@H](CC(C)C)C(N)=O)[C@@H](C)O` [anoplin-SS-anoplin] (HELM PEPTIDE1{C.G.L.L.K.R.I.K.T.L.L.[am]}|PEPTIDE2{C.G.L.L.K.R.I.K.T.L.L.[am]}$PEPTIDE1,PEPTIDE2,1:R3-1:R3$$$V2.0), the MBC in test [1] (MIC wells diluted in fresh MHB, read-out: MBC) was found to be 32 µM (≈ 80.4 µg/mL); in test [2], 32 µM (≈ 80.4 µg/mL); in test [7] (read-out: MBC), 8 µM (≈ 20.1 µg/mL); in test [8] (MIC wells diluted in fresh MHB), 2 µM (≈ 5.02 µg/mL). The MIC in test [3] (MHB) amounted to 16 µM (≈ 40.2 µg/mL); in test [4], 16 µM (≈ 40.2 µg/mL); in test [5] it was 4 µM (≈ 10 µg/mL); in test [6], 1 µM (≈ 2.51 µg/mL). Besides, in test [6] (E. coli WR 3551/98), the “MIC enhancement compared to anoplin monomer” value came out at 32 fold.
On to `CC[C@H](C)[C@H](NC(=O)[C@H](CCCNC(=N)N)NC(=O)[C@H](CCCCN)NC(=O)[C@H](CC(C)C)NC(=O)[C@H](CC(C)C)NC(=O)CNC(=O)CCCCCCCCc1cn(C[C@H]2O[C@@H](O[C@@H]3[C@@H](O)[C@H](N)C[C@H](N)[C@H]3O[C@H]3O[C@H](CN)[C@@H](O)[C@H](O)[C@H]3N)[C@H](O)[C@@H]2O[C@H]2O[C@@H](CN)[C@@H](O)[C@H](O)[C@H]2N)nn1)C(=O)N[C@@H](CCCCN)C(=O)N[C@H](C(=O)N[C@@H](CC(C)C)C(=O)N[C@@H](CC(C)C)C(N)=O)[C@@H](C)O` [NEO-anoplin] (HELM PEPTIDE1{[NC[C@@H]1O[C@H](O[C@H]2[C@@H](O)[C@H](O[C@@H]3[C@@H](O)[C@H](N)C[C@H](N)[C@H]3O[C@H]3O[C@H](CN)[C@@H](O)[C@H](O)[C@H]3N)O[C@@H]2Cn2cc(CCCCCCCCC(=O)[*:2])nn2)[C@H](N)[C@@H](O)[C@@H]1O].G.L.L.K.R.I.K.T.L.L.[am]}$$$$V2.0), for which the MBC in test [1] (MIC wells diluted in fresh MHB) was 16 to 32 µM; in test [2] it was 32 µM (≈ 62.6 µg/mL); in test [7], 8 to 16 µM; in test [8] (MIC wells diluted in fresh MHB), 16 µM (≈ 31.3 µg/mL). For the same compound, the MIC in test [3] (MHB) amounted to 16 µM (≈ 31.3 µg/mL); in test [4] it was 32 µM (≈ 62.6 µg/mL); in test [5], 8 µM (≈ 15.7 µg/mL); in test [6] it was 16 µM (≈ 31.3 µg/mL).
Turning to `NC[C@@H]1O[C@H](O[C@H]2[C@@H](O)[C@H](O[C@@H]3[C@@H](O)[C@H](N)C[C@H](N)[C@H]3O[C@H]3O[C@H](CN)[C@@H](O)[C@H](O)[C@H]3N)O[C@@H]2CO)[C@H](N)[C@@H](O)[C@@H]1O` [neomycin (NEO), neomycin, reference compound], the MBC in test [1] (Staphylococcus aureus, ATCC29213, MIC wells diluted in fresh MHB, read-out: MBC) was 2 µM (≈ 1.23 µg/mL); in test [2] (Staphylococcus aureus), above 32 µM; in test [7] (Escherichia coli, read-out: MBC) it was 4 µM (≈ 2.46 µg/mL); in test [8] (Escherichia coli, WR3551/98, MIC wells diluted in fresh MHB) it was 8 µM (≈ 4.92 µg/mL). Besides, the MIC in test [3] (Staphylococcus aureus, ATCC29213, MHB) is 1 µM (≈ 0.615 µg/mL); in test [4] (Staphylococcus aureus), above 32 µM; in test [5] (Escherichia coli), 4 µM (≈ 2.46 µg/mL); in test [6] (Escherichia coli, WR3551/98) it was 4 µM (≈ 2.46 µg/mL).

Source of the values: article PMC10233823, “Conjugates of Aminoglycosides with Stapled Peptides as a Way to Target Antibiotic-Resistant Bacteria” (ACS Omega, 2023).
